Data reported in article PMC9861212 (Metabolites, 2022).
Where two headings read alike, the source gives them in different places.

Experiments:
[1] = pigs, single i.m. 25 mg/kg b.w.
Protocol: (§5) Six Wistar rats (three females and three males), six chickens and four pigs were housed in clean metabolic cages. […] (0.1 Ci/g). The broiler chickens were given the same dose by oral gavage. According to the recommended guidelines, the urine and feces samples of these animals were collected at different time intervals. […] At the end of the experiment, all animals were anesthetized and sacrificed in accordance with euthanasia guidelines (AVMA, 2001). Urine and feces samples were stored at −80 °C.
(§6) The total radioactivity in the samples were measured by Packard Tricarb 2900 liquid scintillation analyzer (LSC). The pretreated 200 μL liquid sample (urine, blood, and bile) was taken and 10 mL of Ultima Gold scintillation fluid was added for total radioactivity detection by LSC. Then, 200 mg of solid samples (feces and tissues) were accurately weighed, and 2 mL of digestion solution were added and mixed well, then the samples were placed in a 55 °C water bath for 6 h, and cooled to room temperature for later use. Then, 0.1 mol/L disodium edetate (EDTA-2Na) and 30% H2O2 of 200 μL were added and mixed evenly. At room temperature, 10 mL Ultima Gold scintillation fluid was added, and radioactivity determination was performed after standing [21].

[2] = Metabolite profile of SMZ in pigs (LC-v.ARC/MS-IT-TOF); assay type: in vivo; conditions: for Detection in feces: pig feces, 7 d after administration
Protocol: (§1) (0.1 Ci/g). […] Urine and feces samples were stored at −80 °C.
Each sample was centrifuged at 4 °C for 5 min at 4000 rpm/min. The supernatant was collected and 2 mol/L methanol-mixed acid (methanol: 0.5% perchloric acid, 8:1, v:v) was added. Then, the mixture was centrifugated at 10,000 r/min for 10 min, the supernatant was collected and dried with nitrogen at 45 °C. […] The mixture was subjected to Liquid Chromatography tandem on-line isotope detector/Time of Flight Mass Spectrometry (LC-ν.ARC/MS-IT-TOF) system analysis.
(§2) The mixture was prepared for LC-ν. ARC/MS-IT-TOF system analysis.
(§3) X is the percentage of the individual radioactive substances within the total radioactive residues. AUCM is the area under the curve of the individual radioactive substances in the specific samples. AUCT is the area under the curve of the total radioactive residues in the specific samples.

[3] = Tissue distribution and residue depletion in pigs
Protocol: (§7) Another 6 rats were administered physiological saline at the same dose and in exactly the same way as the other animals. The same as above, at each sampling time point, a non-administered animal was killed and a sample was taken to obtain a blank sample. The medication groups samples and blank samples were washed and their weight was recorded. Afterwards, all samples were homogenized and divided into two parts. One part was used to detect the total radioactivity, and the other part was used for SMZ and metabolite analysis.
as §6
The feces and tissues (2 g) were extracted with 10 mL methanol and water (4:1, v:v). The mixture was vortexed and sonicated for 5 min and 10 min, respectively, and finally the samples were centrifugated at 8000 rpm/min for 10 min. The supernatants were transferred into a new centrifuge tube and the residues were further extracted with 10 mL methanol and water (4:1, v:v). The supernatants were combined and evaporated to dryness under a nitrogen stream at 45 °C. The residues were dissolved with 0.5 mL of mobile phase and vortexed mixed for 30 s. Then, 1 mL n-hexane was added to remove the lipid, the mixture was vortexed evenly mixed, centrifugated at 10,000 rpm/min for 10 min and the n-hexane layer was discarded. […] The SMZ and its metabolites in the prepared samples were determined by a ν. ARC radiation detector and a hybrid IT/TOF mass spectrometer connected to the HPLC system (Shimadzu Corp., Kyoto, Japan). The HPLC system was equipped with a solvent delivery pump (LC20AD), autosampler (SIL20AC), DGU20A3 degasser, photodiode array detector (SPDM20A), communication base module (CBM20A), and a column oven (CTO20AC). Separation was performed on a X Bridge C18 column (150 × 2.1 mm; 3.5 μm) using a gradient elution consisting of mobile phase A (0.1% formic acid in water) and mobile phase B (acetonitrile). […] Photo-diode array (PDA) detection was performed from 200 to 400 nm. The sample chamber in the autosampler was maintained at 4 °C, whereas the column was set at 25 °C. The total effluent from the detector was transferred directly to the hybrid IT-TOF mass spectrometer without splitting. Metabolites were isolated and identified using a Shimadzu high-performance liquid chromatography-mass spectrometry-ion trap-time-of-flight (LC-MS-IT-TOF) hybrid mass spectrometer equipped with an electrospray ionization (ESI) source and operated in the positive mode. The eluate from the chromatographic separation was divided into two portions. The portion for metabolic quantification was applied to a ν.ARC 2.0, and the rest was analyzed and identified by ion trap time-of-flight tandem mass spectrometry (IT-TOF-MS/MS). Radiochemical detection was performed using the ν.ARC 2.0 Radio-LC system Detector RS232 equipped with a 500 μL detector cell (AIM Research Co., Hockessin, DE, USA).

[4] = cited from earlier work
[5] = Tissue distribution and residue depletion in chickens; conditions: for Concentration of the metabolites in kidney: oral gavage 25 mg/kg twice a day for 7 d, 3 d
Protocol: In addition, the animals in the blank group (pigs and chickens) and the animals in the treatment group were given physiological saline and 0.5% carboxymethyl cellulose aqueous solution in exactly the same dose and in exactly the same way. […] The same as above, at each sampling time point, a non-administered animal was killed and a sample was taken to obtain a blank sample. The medication groups samples and blank samples were washed and their weight was recorded. Afterwards, all samples were homogenized and divided into two parts. One part was used to detect the total radioactivity, and the other part was used for SMZ and metabolite analysis.
as §6
The feces and tissues (2 g) were extracted with 10 mL methanol and water (4:1, v:v). The mixture was vortexed and sonicated for 5 min and 10 min, respectively, and finally the samples were centrifugated at 8000 rpm/min for 10 min. The supernatants were transferred into a new centrifuge tube and the residues were further extracted with 10 mL methanol and water (4:1, v:v). The supernatants were combined and evaporated to dryness under a nitrogen stream at 45 °C. The residues were dissolved with 0.5 mL of mobile phase and vortexed mixed for 30 s. Then, 1 mL n-hexane was added to remove the lipid, the mixture was vortexed evenly mixed, centrifugated at 10,000 rpm/min for 10 min and the n-hexane layer was discarded. […] The SMZ and its metabolites in the prepared samples were determined by a ν. ARC radiation detector and a hybrid IT/TOF mass spectrometer connected to the HPLC system (Shimadzu Corp., Kyoto, Japan). The HPLC system was equipped with a solvent delivery pump (LC20AD), autosampler (SIL20AC), DGU20A3 degasser, photodiode array detector (SPDM20A), communication base module (CBM20A), and a column oven (CTO20AC). Separation was performed on a X Bridge C18 column (150 × 2.1 mm; 3.5 μm) using a gradient elution consisting of mobile phase A (0.1% formic acid in water) and mobile phase B (acetonitrile). […] Photo-diode array (PDA) detection was performed from 200 to 400 nm. The sample chamber in the autosampler was maintained at 4 °C, whereas the column was set at 25 °C. The total effluent from the detector was transferred directly to the hybrid IT-TOF mass spectrometer without splitting. Metabolites were isolated and identified using a Shimadzu high-performance liquid chromatography-mass spectrometry-ion trap-time-of-flight (LC-MS-IT-TOF) hybrid mass spectrometer equipped with an electrospray ionization (ESI) source and operated in the positive mode. The eluate from the chromatographic separation was divided into two portions.

[6] = Metabolite profile of SMZ in chickens (LC-v.ARC/MS-IT-TOF); assay type: in vivo; conditions: for Percentage of the individual metabolite compared with total concentration of SMZ-related compounds: within 12 h after dosing; for Share of the total radioactivity in feces: 0.5–1 d after administration
Protocol: as §1
(§4) The weight of each aliquot was 0.1% of the total fraction weight (0.25% for urine). Each sample was centrifuged at 4 °C for 5 min at 4000 rpm/min. The supernatant was collected and 2 mol/L methanol-mixed acid (methanol: 0.5% perchloric acid, 8:1, v:v) was added. Then, the mixture was centrifugated at 10,000 r/min for 10 min, the supernatant was collected and dried with nitrogen at 45 °C. […] The mixture was subjected to Liquid Chromatography tandem on-line isotope detector/Time of Flight Mass Spectrometry (LC-ν.ARC/MS-IT-TOF) system analysis.
as §2, §3

[7] = test system: TA100 strain of Salmonella typhimurium; conditions: cited from earlier work
[8] = Tissue distribution and residue depletion in rats; conditions: single i.m. dose
Protocol: as §7
The total radioactivity in the samples were measured by Packard Tricarb 2900 liquid scintillation analyzer (LSC). The pretreated 200 μL liquid sample (urine, blood, and bile) was taken and 10 mL of Ultima Gold scintillation fluid was added for total radioactivity detection by LSC. […] At room temperature, 10 mL Ultima Gold scintillation fluid was added, and radioactivity determination was performed after standing [21].
The feces and tissues (2 g) were extracted with 10 mL methanol and water (4:1, v:v). […] The SMZ and its metabolites in the prepared samples were determined by a ν. […] The portion for metabolic quantification was applied to a ν.ARC 2.0, and the rest was analyzed and identified by ion trap time-of-flight tandem mass spectrometry (IT-TOF-MS/MS). […]

[9] = chickens, single oral gavage 25 mg/kg b.w.
Protocol: as §5, §6

[10] = Metabolite profile of SMZ in rats (LC-v.ARC/MS-IT-TOF); assay type: in vivo; conditions: rat urine; after i.m. injection
Protocol: as §1, §4, §2, §3

[11] = pig, within 12 h after administration
[12] = female rats, single i.m. 25 mg/kg b.w., within 14 d
[13] = male rats, single i.m. 25 mg/kg b.w., within 14 d
[14] = female rats, single i.m. 25 mg/kg b.w., 0–0.5 d
[15] = female rats, single i.m. 25 mg/kg b.w., 0.5–1 d
[16] = female rats, single i.m. 25 mg/kg b.w., 1–3 d
[17] = female rats, single i.m. 25 mg/kg b.w., 3–7 d
[18] = female rats, single i.m. 25 mg/kg b.w., 7–14 d
[19] = male rats, single i.m. 25 mg/kg b.w., 0–0.5 d
[20] = male rats, single i.m. 25 mg/kg b.w., 0.5–1 d
[21] = male rats, single i.m. 25 mg/kg b.w., 1–3 d
[22] = male rats, single i.m. 25 mg/kg b.w., 3–7 d
[23] = male rats, single i.m. 25 mg/kg b.w., 7–14 d
[24] = chicken, 6 h after administration

Cc1cc(NS(=O)(=O)c2ccc(N)cc2)no1 [Compound S0, sulfamethoxazole]
Recovery of total radioactivity in feces ([1]; 0–14 d): 14.7% | Detection in feces [2]: not detected | Share of the total residues in fat [3, 11]: 41.9% | Share of the total residues in kidney [3, 11]: 33.5% | Share of the total residues in liver [3, 11]: 34.4% | Share of the total residues in muscle [3, 11]: 55.9% | Total recovery of radioactivity (urine + feces) [12]: 97% | Total recovery of radioactivity (urine + feces) [13]: 98% | Excreted through feces (rats (sexes together), single i.m. 25 mg/kg b.w., within 14 d): 21.4%

Cc1cc(NS(=O)(=O)c2ccc(NO)cc2)no1 [Compound S3, N4-hydroxyamino sulfamethoxazole]
Reactivity / direct cytotoxicity [4]: neither highly reactive nor directly cytotoxic | Concentration of the metabolites in kidney ([5]; chicken): not detected | Percentage of the individual metabolite compared with total concentration of SMZ-related compounds ([6]; chicken Extra (feces/excreta)): 4.4% | Percentage of the individual metabolite compared with total concentration of SMZ-related compounds ([6]; chicken bile): not detected | Share of the total radioactivity in feces ([6]; chicken feces): no longer detected | Percentage of the individual metabolite compared with total concentration of SMZ-related compounds ([6]; chicken plasma (blood)): 0.9%

Cc1cc(NS(=O)(=O)c2ccc(NS(=O)(=O)O)cc2)no1 [Compound S4, N4-sulfatesulfamethoxazole]
Concentration of the metabolites in kidney ([5]; chicken): not detected | Share of the total radioactivity in feces ([6]; chicken feces): 2.06%

CC(=O)ONc1ccc(S(=O)(=O)Nc2cc(C)on2)cc1 [N-acetoxy-SMZ]
In vitro cytotoxicity relative to S3 [4]: more toxic than S3 | Mutagenicity in the Ames test [7]: weak mutations

[3H]c1cc(N)ccc1S(=O)(=O)Nc1cc(C)on1 [[^3H]-SMZ, 2-[^3H]-sulfamethoxazole]
Recovery of total radioactivity in feces ([1]; 0–0.5 d): 5.56 ± 0.42% | Recovery of total radioactivity in urine ([1]; 0–0.5 d): 60.02 ± 16.54% | Total radioactive recovery rate (urine and feces) ([1]; 0–0.5 d): exceeds 65% | Recovery of total radioactivity in feces ([1]; 0–14 d): 14.72 ± 1.31% | Recovery of total radioactivity in feces ([1]; 0.5–1 d): 2.69 ± 3.12% | Recovery of total radioactivity in urine ([1]; 0.5–1 d): 15.3 ± 8.73% | Recovery of total radioactivity in feces ([1]; 1–3 d): 5.19 ± 3.36% | Recovery of total radioactivity in urine ([1]; 1–3 d): 4.52 ± 2.22% | Recovery of total radioactivity in feces ([1]; 3–7 d): 0.82 ± 0.34% | Recovery of total radioactivity in urine ([1]; 3–7 d): 0.59 ± 0.17% | Recovery of total radioactivity in feces ([1]; 7–14 d): 0.45 ± 0.3% | Recovery of total radioactivity in urine ([1]; 7–14 d): 0.16 ± 0.04% | Time point of the highest levels of radioactivity in all collected substrates [8]: 1 h | Time point of the highest levels of radioactivity in all collected substrates ([3]; pigs, i.m. 7 consecutive days): 12 h | Time point of the highest levels of radioactivity in all collected substrates ([5]; chickens, gavage 7 consecutive days): 6 h | Recovery of total radioactivity in excreta ([9]; 0–0.5 d, 25 mg/kg): 60.65 ± 13.08% | Recovery of total radioactivity in excreta ([9]; 0–14 d): 93.39 ± 2.28% | Recovery of total radioactivity in excreta ([9]; 0.5–1 d): 15.08 ± 6.87% | Recovery of total radioactivity in excreta ([9]; 1–3 d): 11.91 ± 9.67% | Recovery of total radioactivity in excreta ([9]; 3–7 d): 5.48 ± 1.89% | Recovery of total radioactivity in excreta ([9]; 7–14 d): 0.26 ± 0.13% | Recovery of total radioactivity in feces [14]: 14.31 ± 1.73% | Recovery of total radioactivity in urine [14]: 45.38 ± 6.09% | Recovery of total radioactivity in feces (female rats, single i.m. 25 mg/kg b.w., 0–14 d): 19.58 ± 2.09% | Recovery of total radioactivity in feces [15]: 4.45 ± 1.87% | Recovery of total radioactivity in urine [15]: 19.41 ± 2.15% | Recovery of total radioactivity in feces [16]: 1.02 ± 0.72% | Recovery of total radioactivity in urine [16]: 10.09 ± 3.14% | Recovery of total radioactivity in feces [17]: 0.42 ± 0.28% | Recovery of total radioactivity in urine [17]: 3.97 ± 1.24% | Recovery of total radioactivity in feces [18]: 0.05 ± 0.03% | Recovery of total radioactivity in urine [18]: 0.38 ± 0.17% | Total recovery of radioactivity (urine + feces) [12]: 97.3 ± 1.16% | Recovery of total radioactivity in feces [19]: 17.3 ± 1.16% | Recovery of total radioactivity in urine [19]: 45.33 ± 4.79% | Recovery of total radioactivity in feces (male rats, single i.m. 25 mg/kg b.w., 0–14 d): 23.24 ± 1.79% | Recovery of total radioactivity in feces [20]: 5.3 ± 1.43% | Recovery of total radioactivity in urine [20]: 19.31 ± 7.15% | Recovery of total radioactivity in feces [21]: 0.35 ± 0.14% | Recovery of total radioactivity in urine [21]: 7.49 ± 2.04% | Recovery of total radioactivity in feces [22]: 0.25 ± 0.14% | Recovery of total radioactivity in urine [22]: 2.7 ± 1.89% | Recovery of total radioactivity in feces [23]: 0.05 ± 0.03% | Recovery of total radioactivity in urine [23]: 0.49 ± 0.3% | Total recovery of radioactivity (urine + feces) [13]: 98.56 ± 2.82% | Total radioactive recovery rate (urine and feces) (rats, single i.m. 25 mg/kg b.w., 0–0.5 d): > 59% | Dose excreted (total radioactivity) (rats, single i.m., within 14 days): more than 93%

Cc1cc(NS(=O)(=O)c2ccc(NC3OC(C(=O)O)C(O)C(O)C3O)cc2)no1 (stereo not drawn) [Compound S5, N4-glucuronidsulfamethoxazole]
Detection in urine by LC/MS-IT-TOF ([2]; pig urine, 0–0.5 d): trace amounts | Detection in urine by LC-MS-IT-TOF [10]: trace amounts | Detection in feces by LC-MS-IT-TOF ([6]; chicken feces, 12 h): trace amount

Nc1ccc(S(=O)(=O)Nc2cc(CO)on2)cc1 [Compound S2, 5-hydroxysulfamethoxazole]
Concentration of the metabolites in kidney ([5]; chicken): not detected | Percentage of the individual metabolite compared with total concentration of SMZ-related compounds ([6]; chicken Extra (feces/excreta)): 9.6% | Percentage of the individual metabolite compared with total concentration of SMZ-related compounds ([6]; chicken bile): 2.5% | Percentage of the individual metabolite compared with total concentration of SMZ-related compounds ([6]; chicken plasma (blood)): 1.2%

CC(=O)Nc1ccc(S(=O)(=O)Nc2cc(C)on2)cc1 [Compound S1, N4-acetyl-sulfamethoxazole]
Detection in feces [2]: detected | Share of the total residues in fat [3, 11]: 58.1% | Share of the total residues in kidney [3, 11]: 66.5% | Share of the total residues in muscle [3, 11]: 44.1% | Share of the residual amount in fat [5, 24]: 70.0% | Share of the residual amount in kidney [5, 24]: 1.0% | Share of the residual amount in liver [5, 24]: 71.7% | Share of the residual amount in muscle [5, 24]: 42.1%
